Experimental data as given in patent publication US8211883B2, “Topical delivery of phthalocyanines” (priority 2004, dated 2012).
Marks after values point to notes of the source that are not given here.

Columns and labels:
[1] = system: Chinese hamster V79-379 lung fibroblasts; assay: Uptake of phthalocyanines into V79 cells; conditions: for Uptake Into V79 Cells, 1 μM / Uptake Into V79 Cells, 4 μM: 18 hours; for n Moles/10^6 Cells/μM (composite uptake value): V79 cells, average of all data, asterisk: listed value is for 1 μM, average would be higher
In short: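 V79-379 cells were incubated with phthalocyanine for 18 h, typically at 1, 2 and/or 4 μM. Cells collected on filters were extracted into ethanol and absorbance read at the peak, usually 668 nm. Values are nmol per 10^6 cells, using ε 2.93×10^5.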

[2] = system: Mouse lymphoma L5178y-R cells; assay: Clonogenic cell survival of PDT-treated LY-R cells; type: cell-based; conditions: 0.5 μM; for activity relative to PcXII: from LD50/LD90 fluences
Experimental: Mouse lymphoma L5178y-R (hereinafter also referred to as “LY-R”) cells were grown in suspension culture as described in Ramakrishnan N., Oleinick, N. L. Clay, M. E., Homg, M. F., Antunez, A. R., and Evans H. H., Photochem. Photobiol. 50, 373-378, 1989 and Agarwal, M. L., Clay, M. E., Harvey, E. J., Evans, H. H., Antunez, A. R., and Oleinick, N. L., Cancer Res., 51, 5993-5996, 1991.
The cells were used while in exponential growth. Stock solutions of either 0.5 or 1 mM of PcIV, PcXII, PcX, PcXVIII were prepared in dimethylformamide unless otherwise indicated and added to the 10 mL medium at a rate of 1 μL per mL. After allowing 18 hours for uptake of the phthalocyanine into the cells, the flasks containing the cultures were placed on a glass exposure tray above a 500-W tungsten-halogen lamp. The exposure tray was fitted with a 600-nm high-pass filter. Flasks were exposed to various fluences of red light (up to 30 kJ/m^2) at a fluence rate of approximately 74 W/m^2). After irradiation, the cells were collected by centrifugation.
For measurement of clonogenic cell survival, aliquots were plated in medium containing soft agar as described in Ramakrishnan N., Oleinick, N. L. Clay, M. E., Homg, M. F., Antunez, A. R., and Evans H. H., Photochem. Photobiol. 50, 373-378, 1989. The aliquots were plated in sufficient numbers to produce 50-200 colonies. The dishes were kept in an incubator at 37° C. in an atmosphere of 5% CO2 and 95% air for 10-14 days to allow viable cells to form colonies. Colonies were counted by eye. Controls treated with the phthalocyanine alone had plating efficiencies of about […]. The plating efficiencies of the treated cells are normalized to the plating efficiencies of control cells in each experiment. For measurement of the induction of apoptosis, DNA was isolated from the treated and control cells 2 hours after photodynamic therapy, subjected to electrophoresis on 1.5% agarose, stained with ethidium bromide, and visualized by UV transillumination, as described in Agarwal et al. The results are shown in Tables 4, 5 and 6 and in FIG. 3.

[3] = Retention of Pc IV in tumor tissue (pharmacokinetic data); type: in vivo; conditions: after administration

CCN(CCC[Si](C)(C)O[Si]1(O[Si](C)(C)CCCN(CC)CCN(C)C)n2c3c4ccccc4c2N=C2N=C(N=c4c5ccccc5c(n41)=NC1=NC(=N3)c3ccccc31)c1ccccc12)CCN(C)C [Compound XVIII, SiPc[OSi(CH3)2(CH2)3N(CH2CH3)(CH2)2N(CH3)2]2]
Uptake Into V79 Cells, 1 μM [1]: 0.3 ± 0.1 n Moles/10^6 cells | Uptake Into V79 Cells, 4 μM [1]: 3.6 ± 0.6 n Moles/10^6 cells | n Moles/10^6 Cells/μM (composite uptake value) [1]: 0.3* n Moles/10^6 Cells/μM | Ld50 (fluence that reduces cell survival to 50%) [2]: 5.00 kJ/m^2 | Ld90 (fluence that reduces cell survival to 10%) [2]: 7.81 kJ/m^2 | activity relative to PcXII [2]: 22% | normalized plating efficiency, AVG. ([2]; light dose 0 kJ/m^2): 100 | normalized plating efficiency, AVG. ([2]; light dose 2 kJ/m^2): 81.8 | normalized plating efficiency, AVG. ([2]; light dose 3 kJ/m^2): 73.6 | normalized plating efficiency, AVG. ([2]; light dose 4 kJ/m^2): 64.0 | normalized plating efficiency, AVG. ([2]; light dose 5 kJ/m^2): 52.1 | normalized plating efficiency, AVG. ([2]; light dose 6 kJ/m^2): 33.8 | normalized plating efficiency, AVG. ([2]; light dose 8 kJ/m^2): 9.13 | normalized plating efficiency, AVG. ([2]; light dose 10 kJ/m^2): 3.0

CN(C)CCC[Si](C)(C)O[Si]1(O)n2c3c4ccccc4c2N=C2N=C(N=c4c5ccccc5c(n41)=NC1=NC(=N3)c3ccccc31)c1ccccc12 (stereo not drawn) [Compound IV, HOSiPcOSi(CH3)2(CH2)3N(CH3)2]
retention in tumor tissue [3]: retained in tumor tissue even after 7 days | Ld50 (fluence that reduces cell survival to 50%) [2]: 1.38 kJ/m^2 | Ld90 (fluence that reduces cell survival to 10%) [2]: 2.15 kJ/m^2 | activity relative to PcXII [2]: about 80% | normalized plating efficiency, AVG. ([2]; light dose 0 kJ/m^2): 100 | normalized plating efficiency, AVG. ([2]; light dose 1 kJ/m^2): 80.9 | normalized plating efficiency, AVG. ([2]; light dose 2 kJ/m^2): 19.7 | normalized plating efficiency, AVG. ([2]; light dose 2.5 kJ/m^2): 0.82 | normalized plating efficiency, AVG. ([2]; light dose 3 kJ/m^2): 0.16 | normalized plating efficiency, AVG. ([2]; light dose 5 kJ/m^2): 0.014

CN(C)CCC[Si](C)(C)O[Si]1(O[Si](C)(C)CCCN(C)C)n2c3c4ccccc4c2N=C2N=C(N=c4c5ccccc5c(n41)=NC1=NC(=N3)c3ccccc31)c1ccccc12 [Compound XII, SiPc[OSi(CH3)2(CH2)3N(CH3)2]2]
Uptake Into V79 Cells, 1 μM [1]: 2.1 ± 1.2 n Moles/10^6 cells | Uptake Into V79 Cells, 4 μM [1]: 4.6 ± 1.5 n Moles/10^6 cells | n Moles/10^6 Cells/μM (composite uptake value) [1]: 1.6 n Moles/10^6 Cells/μM | Ld50 (fluence that reduces cell survival to 50%) [2]: 1.11 kJ/m^2 | Ld90 (fluence that reduces cell survival to 10%) [2]: 1.70 kJ/m^2 | normalized plating efficiency, AVG. ([2]; light dose 0 kJ/m^2): 100 | normalized plating efficiency, AVG. ([2]; light dose 1 kJ/m^2): 82.2 | normalized plating efficiency, AVG. ([2]; light dose 2 kJ/m^2): 5.23 | normalized plating efficiency, AVG. ([2]; light dose 2.5 kJ/m^2): 0.90 | normalized plating efficiency, AVG. ([2]; light dose 3 kJ/m^2): 0.15 | normalized plating efficiency, AVG. ([2]; light dose 4 kJ/m^2): 0.014 | normalized plating efficiency, AVG. ([2]; light dose 5 kJ/m^2): 0.0027
